Test results: ChEMBL document CHEMBL5518248, “Design, Synthesis, and Biological Evaluation of Novel Arylomycins against Multidrug-Resistant Gram-Negative Bacteria” (J Med Chem, 2024)
pIC50: −log10 of the molar value. In brackets after ≈: the same amount, converted by molar mass. Activity calls are given as the source filed them. The calls are words filed in the database; no cut-off is given here.

Key:
Escherichia coli [1] = assay: Antibacterial activity against Escherichia coli 14-4 assessed as inhibition of bacterial growth measured after 18 to 20 hrs by broth microdilution method; type: functional; conditions: time 18-20 hrs
Pseudomonas aeruginosa [2] = assay: Antibacterial activity against Pseudomonas aeruginosa 17-1 assessed as inhibition of bacterial growth measured after 18 to 20 hrs by broth microdilution method; type: functional; conditions: time 18-20 hrs
Klebsiella pneumoniae [3] = assay: Antibacterial activity against Klebsiella pneumoniae 15-1 assessed as inhibition of bacterial growth measured after 18 to 20 hrs by broth microdilution method; type: functional; conditions: time 18-20 hrs
Pseudomonas aeruginosa [4] = assay: Antibacterial activity against Pseudomonas aeruginosa T-2022 assessed as inhibition of bacterial growth measured after 18 to 20 hrs by broth microdilution method; type: functional; conditions: time 18-20 hrs
Pseudomonas aeruginosa [5] = assay: Antibacterial efficacy against multi drug resistant Pseudomonas aeruginosa T-2022-D2-048 infected in cyclophosphamide-induced neutropenic thigh infection ICR mouse model assessed as decrease in bacterial burden at 40 mg/kg, iv dose measured after 24 hrs; type: functional, organism-based
Pseudomonas aeruginosa [6] = assay: Antibacterial activity against Pseudomonas aeruginosa 19-5 assessed as inhibition of bacterial growth measured after 18 to 20 hrs by broth microdilution method; type: functional; conditions: time 18-20 hrs
Escherichia coli [7] = assay: Antibacterial activity against Escherichia coli 14-2 assessed as inhibition of bacterial growth measured after 18 to 20 hrs by broth microdilution method; type: functional; conditions: time 18-20 hrs
Acinetobacter baumannii [8] = assay: Antibacterial activity against Acinetobacter baumannii 17-8 assessed as inhibition of bacterial growth measured after 18 to 20 hrs by broth microdilution method; type: functional; conditions: time 18-20 hrs
Escherichia coli [9] = assay: Antibacterial activity against Escherichia coli ATCC 35218 assessed as inhibition of bacterial growth measured after 18 to 20 hrs by broth microdilution method; type: functional; conditions: time 18-20 hrs
Acinetobacter baumannii [10] = assay: Antibacterial activity against Acinetobacter baumannii 17-2 assessed as inhibition of bacterial growth measured after 18 to 20 hrs by broth microdilution method; type: functional; conditions: time 18-20 hrs
Klebsiella pneumoniae [11] = assay: Antibacterial activity against Klebsiella pneumoniae 15-5 assessed as inhibition of bacterial growth measured after 18 to 20 hrs by broth microdilution method; type: functional; conditions: time 18-20 hrs
Klebsiella pneumoniae [12] = assay: Antibacterial activity against Klebsiella pneumoniae 15-4 assessed as inhibition of bacterial growth measured after 18 to 20 hrs by broth microdilution method; type: functional; conditions: time 18-20 hrs
Pseudomonas aeruginosa [13] = assay: Antibacterial activity against multi drug resistant Pseudomonas aeruginosa T-2022-D2-048 infected in cyclophosphamide-induced neutropenic thigh infection ICR mouse model assessed as reduction in log CFU at 12 mg/kg, iv measured after 24 hrs; type: functional
[14] = Volume of distribution at steady state in Sprague-Dawley rat at 10 mg/kg, iv measured upto 24 hrs LC-MS/MS analysis; type: ADME, organism-based; conditions: in vivo, read-out: Vdss
[15] = Tmax in Sprague-Dawley rat at 10 mg/kg, po measured upto 24 hrs LC-MS/MS analysis; type: ADME, organism-based; conditions: in vivo
[16] = AUC (0 to t) in Sprague-Dawley rat at 10 mg/kg, iv measured upto 24 hrs LC-MS/MS analysis; type: ADME, organism-based; conditions: Sprague-Dawley, in vivo
[17] = AUC (0 to t) in Sprague-Dawley rat at 10 mg/kg, po measured upto 24 hrs LC-MS/MS analysis; type: ADME, organism-based; conditions: Sprague-Dawley, in vivo
[18] = MRT in Sprague-Dawley rat at 10 mg/kg, po measured upto 24 hrs LC-MS/MS analysis; type: ADME, organism-based; conditions: in vivo
[19] = MRT in Sprague-Dawley rat at 10 mg/kg, iv measured upto 24 hrs LC-MS/MS analysis; type: ADME, organism-based; conditions: in vivo
[20] = Clearance in Sprague-Dawley rat at 10 mg/kg, iv measured upto 24 hrs LC-MS/MS analysis; type: ADME, organism-based; conditions: in vivo
[21] = Half life in Sprague-Dawley rat at 10 mg/kg, po measured upto 24 hrs LC-MS/MS analysis; type: ADME, organism-based; conditions: in vivo
[22] = Oral bioavailability in Sprague-Dawley rat at 10 mg/kg measured upto 24 hrs LC-MS/MS analysis; type: ADME, organism-based; conditions: Sprague-Dawley, in vivo
[23] = Cmax in Sprague-Dawley rat at 10 mg/kg, po measured upto 24 hrs LC-MS/MS analysis; type: ADME, organism-based; conditions: in vivo
[24] = Half life in Sprague-Dawley rat at 10 mg/kg, iv measured upto 24 hrs LC-MS/MS analysis; type: ADME, organism-based; conditions: in vivo
Jurkat [25] = assay: Cytotoxicity against human Jurkat cells assessed as inhibition of cell growth at 100 uM incubated for 24 hrs by CCK8 method relative to control; type: functional
Jurkat [26] = assay: Cytotoxicity against human Jurkat cells assessed as inhibition of cell growth incubated for 24 hrs by CCK8 method; type: functional, cell-based
[27] = Cytotoxicity against HEK293T cells assessed as inhibition of cell growth at 100 uM incubated for 24 hrs by CCK8 method relative to control; type: toxicity, cell-based, HEK-293T; conditions: human
HepG2 [28] = assay: Cytotoxicity against human HepG2 cells assessed as inhibition of cell growth incubated for 24 hrs by CCK8 method; type: functional, cell-based; conditions: HepG2, 24 h
HepG2 [29] = assay: Cytotoxicity against human HepG2 cells assessed as inhibition of cell growth at 100 uM incubated for 24 hrs by CCK8 method relative to control; type: functional
[30] = Cytotoxicity against HEK293T cells assessed as inhibition of cell growth incubated for 24 hrs by CCK8 method; type: toxicity, cell-based, HEK-293T; conditions: human

Structure (SMILES) | MIC (Escherichia coli [1]) [µg/mL] | MIC (Pseudomonas aeruginosa [2]) [µg/mL] | MIC (Klebsiella pneumoniae [3]) [µg/mL] | MIC (Pseudomonas aeruginosa [6]) [µg/mL] | MIC (Escherichia coli [7]) [µg/mL] | MIC (Acinetobacter baumannii [8]) [µg/mL] | MIC (Escherichia coli [9]) [µg/mL] | MIC (Acinetobacter baumannii [10]) [µg/mL] | MIC (Klebsiella pneumoniae [11]) [µg/mL] | MIC (Klebsiella pneumoniae [12]) [µg/mL] | inhibition at 100 µM (Jurkat [25]) [%] | pIC50 (Jurkat [26]) | inhibition at 24 h, 100 µM [27] [%] | pIC50 (HepG2 [28]) | inhibition at 100 µM (HepG2 [29]) [%] | IC50 at 24 h [30] [µM] | further results
C[C@@H](O)[C@H]1C(=O)N2C(C(=O)O)=C(S[C@@H]3CN[C@H](C(=O)N(C)C)C3)[C@H](C)[C@H]12 [MEROPENEM] | 2 (≈ 5.22 µM) | 8 (≈ 20.9 µM) | > 64 | 32 (≈ 83.4 µM) | 2 (≈ 5.22 µM) | > 64 | 0.06 (≈ 0.156 µM) | > 64 | > 64 | > 64 |  |  |  |  |  |  | MIC (Pseudomonas aeruginosa [4]): > 64 µg/mL; Activity (Pseudomonas aeruginosa [5]): Active
Cc1nc(-c2ccc(CSSC(C)(C)C)cc2)ncc1C(=O)N[C@@H](CCN)C(=O)N(C)[C@@H]1C(=O)N[C@@H](C)C(=O)N[C@H](C(=O)NCC#N)Cc2ccc(OCCN)c(c2)-c2cc1ccc2OCCN |  |  |  |  |  |  |  |  |  |  |  |  |  |  |  |  | log CFU reduction (Pseudomonas aeruginosa [13]): 3.5 log CFU/g; Vd [14]: 0.435 L/kg; MIC (Pseudomonas aeruginosa [4]): 4 µg/mL (≈ 4.13 µM); Tmax [15]: 3.33 h; AUC(0-t) at 24 h [16]: 142000 ng·h/mL; AUC(0-t) at 24 h [17]: 70.1 ng·h/mL; MRT [18]: 5.63 h; MRT [19]: 6.27 h; clearance [20]: 1.16 mL/min/kg; half-life [21]: 2.83 h; bioavailability [22]: 0.05%; Cmax [23]: 11.5 ng/mL; half-life [24]: 4.18 h
Cc1nc(-c2ccc(SSC(C)(C)C)cc2)ncc1C(=O)N[C@@H](CCN)C(=O)N(C)[C@@H]1C(=O)N[C@@H](C)C(=O)N[C@H](C(=O)O)Cc2ccc(OCCN)c(c2)-c2cc1ccc2OCCN.O=C(O)C(F)(F)F.O=C(O)C(F)(F)F.O=C(O)C(F)(F)F.O=C(O)C(F)(F)F | 0.06 | 32 | ≤ 0.03 | 16 | ≤ 0.03 | 1 | ≤ 0.03 | 0.5 | ≤ 0.03 | ≤ 0.03 | 44.8 | < 4.00 | 26.1 | < 4.00 | -4.95 | > 100 | 
CCCSSCc1ccc(-c2ncc(C(=O)N[C@@H](CCN)C(=O)N(C)[C@@H]3C(=O)N[C@@H](C)C(=O)N[C@H](C(=O)NCC#N)Cc4ccc(OCCN)c(c4)-c4cc3ccc4OCCN)c(C)n2)cc1 |  |  |  |  |  |  |  |  |  |  |  |  |  |  |  |  | Vd [14]: 0.285 L/kg; AUC(0-t) at 24 h [16]: 15300 ng·h/mL; MRT [19]: 0.44 h; clearance [20]: 10.8 mL/min/kg; half-life [24]: 0.37 h
CCCSSc1ccc(-c2ncc(C(=O)N[C@@H](CCN)C(=O)N(C)[C@@H]3C(=O)N[C@@H](C)C(=O)N[C@H](C(=O)NCC#N)Cc4ccc(OCCN)c(c4)-c4cc3ccc4OCCN)c(C)n2)cc1.O=C(O)C(F)(F)F.O=C(O)C(F)(F)F.O=C(O)C(F)(F)F.O=C(O)C(F)(F)F | ≤ 0.03 | 4 | ≤ 0.03 | 4 | ≤ 0.03 | 0.5 | ≤ 0.03 | 1 | 0.06 | 0.125 | 42.4 | < 4.00 | 30.6 | < 4.00 | -6.72 | > 100 | 
Cc1nc(-c2ccc(CSSCC(C)C)cc2)ncc1C(=O)N[C@@H](CCN)C(=O)N(C)[C@@H]1C(=O)N[C@@H](C)C(=O)N[C@H](C(=O)NCC#N)Cc2ccc(OCCN)c(c2)-c2cc1ccc2OCCN.O=C(O)C(F)(F)F.O=C(O)C(F)(F)F.O=C(O)C(F)(F)F.O=C(O)C(F)(F)F | ≤ 0.03 | 4 | ≤ 0.03 | 4 | ≤ 0.03 | 0.125 | ≤ 0.03 | 0.5 | 0.06 | 0.06 | 18.4 | < 4.00 | 42.7 | < 4.00 | -4.7 | > 100 | 
CSSC(C)(C)c1ccc(-c2ncc(C(=O)N[C@@H](CCN)C(=O)N(C)[C@@H]3C(=O)N[C@@H](C)C(=O)N[C@H](C(=O)NCC#N)Cc4ccc(OCCN)c(c4)-c4cc3ccc4OCCN)c(C)n2)cc1.O=C(O)C(F)(F)F.O=C(O)C(F)(F)F.O=C(O)C(F)(F)F.O=C(O)C(F)(F)F | ≤ 0.03 | 8 | ≤ 0.03 | 8 | ≤ 0.03 | 0.25 | ≤ 0.03 | 1 | ≤ 0.03 | ≤ 0.03 | 39.1 | < 4.00 | 48.1 | < 4.00 | -12.6 | > 100 | 
